Test results from article PMC11117716 (Biomolecules, 2024).

Tests used:
[1] = Plasma pharmacokinetics after oral Posiphen in CD-1 mice (LC-MS/MS); conditions: for AUC(0-t) / Cmax / Tmax: po
Method: (§1) The animal PKs were taken from multiple GLP toxicology studies, biomarker studies, and efficacy studies. […] Sample size (n) represents the number of animals at each time point of sample collection. […] The dose volume was determined according to animals’ weight collected on the dosing day.
(§2) In mice, blood samples were collected via the saphenous vein or other suitable blood collection site into a microcentrifuge tube containing the anti-coagulant K2-EDTA on wet ice and processed for plasma. For samples collected within the first hour of dosing, ±1 min is acceptable, while for all other timepoints, samples were taken within 5% of the scheduled time and are not considered as protocol deviations. Plasma samples were centrifuged (3200× g for 10 min at 4 °C) within an hour of collection. CSF samples were collected with 3 μL volume per time point, frozen on dry ice, and stored at −60 °C for further analysis. For brain collection in mice, animals were euthanized using CO2 inhalation. Whole brain was collected, washed in cold saline, dried, and homogenized immediately […]. Homogenizing buffer MeOH/15 mM PBS (1:2, v:v) was used at a ratio of 1:9 (1 g of tissue with 9 mL of buffer; the dilution ratio is 10).
(§3) In humans, the bioanalytical method was performed in accordance with current FDA, Industry Guidelines, and OECD Principles. […] The sample analysis was conducted in accordance with current GCP and GLP principles, and the results were presented for pharmacokinetic profiling (Absorption Systems, Exton, PA, USA). Calibration ranges for each analyte ranged from 1000 ng/mL to 1 ng/mL (or ng/g for brain) in plasma, brain, and CSF matrices. The detection limit was 0.025 ng/mL. The following PK parameters were collected for the purpose of this manuscript: maximum concentration (Cmax), time to maximum drug concentration (Tmax), half-life (T1/2), and the Area Under the Curve (AUC).
Blood plasma samples were collected at various time points within the initial 8 h following administration (6 h for humans). Plasma concentrations (ng/mL) were measured over the 8 h observation window to characterize the maximum concentration (Cmax), the time to peak drug concentration (Tmax), the half-life (T1/2), and the Area Under the Curve (AUC).

[2] = Plasma pharmacokinetics after oral Posiphen in Beagle dogs (LC-MS/MS); parameters: species or system dog; conditions: dog plasma
Method: In rats and dogs, blood samples were centrifuged, and the resultant plasma was separated, and 200 µL (rat) or 400 µL (dog) of plasma was transferred to uniquely labeled pre-chilled polypropylene tubes containing 5 µL (rat) or 10 µL (dog) Dichlorvos spiking solution (nominal concentration of 0.82 mg/mL in MeOH/Water, 20/80, v/v).
(§4) The detection limit was 0.025 ng/mL.

[3] = Plasma pharmacokinetics after oral Posiphen in humans (LC-MS/MS); format: in vivo, human; conditions: human, in vivo, po; for AUC(0-t): read-out: AUC (0-t)
Method: This paper describes data from multiple studies.
Samples were frozen and then stored at −80 °C.
as §4

[4] = in vivo
Method: as §1, §2, §3

[5] = clinical; conditions: human, in vivo; for Kp: 80 mg/day; for AUC(0-t) / Cmax: po
Method: This paper describes data from multiple studies. The healthy volunteers’ data come from the single ascending and multiple ascending dose study, whereas Alzheimer’s and Parkinson’s patients are represented by the MCI NCT01072812 study, ADCS NCT02925650 study, and AD/PD NCT04524351 study. The evaluations are based on a sample size of n = 4 for each time point.
In humans, plasma and lumbar CSF samples were collected via an indwelling catheter over 12 h (at 0, 1, 1.5, 2, 3, 4, 6, 8, and 12 h) initiated at the same time of day, 1 day prior to the start of dosing, to obtain time-dependent baseline control data, and then at the exact same times immediately after the last dose was administered. Samples were frozen and then stored at −80 °C.
as §3

[6] = tested on: acetylcholinesterase; conditions: cited from earlier work
[7] = tested on: neurotoxic aggregating proteins; conditions: cited from earlier work
[8] = both, CD-1, mouse, in vivo, 65 mg/kg
[9] = CD-1, mouse, in vivo, po, 65 mg/kg, Cmax, Table 2, mouse CSF, oral Posiphen

SMILES: CN1c2ccc(OC(=O)Nc3ccccc3)cc2[C@@]2(C)CCNC12 (stereo partly shown) [N1, N1-norposiphen]
- concentration at 0.25 h [1, 8]: 350 ng/mL
- concentration at 0.5 h [1, 8]: 484 ng/mL
- concentration at 1 h [1, 8]: 446 ng/mL
- concentration at 1.25 h [1, 8]: 554 ng/mL
- concentration at 1.5 h [1, 8]: 525 ng/mL
- concentration at 2 h [1, 8]: 419 ng/mL
- concentration at 4 h [1, 8]: 83.6 ng/mL
- concentration at 8 h [1, 8]: 3.64 ng/mL
- concentration at 12 h [1, 8]: 0 ng/mL
- AUC(0-t) [1, 8]: 1400 ng·h/mL
- Cmax [1, 8]: 554 ng/mL
- Tmax [1, 8]: 1.25 h
- Plasma level relative to N8 ([1]; mouse plasma): a fourth
- Plasma level relative to Posiphen ([1]; mouse plasma): half
- Primary compound in plasma [2]: primary compound
- Cmax [3]: 24.9 ng/mL
- AUC(0-t) [3]: 213 ng·h/mL
- Cmax [4, 9]: 54.5 ng/mL
- Cmax ([4]; CD-1, mouse, po, 65 mg/kg): 1850 ng/mL
- Cmax ([4]; Table 2, mouse CSF, oral Posiphen): 54.4 ng/mL
- Kp [5]: 0.1
- AUC(0-t) [5]: 26.7 ng·h/mL
- Cmax [5]: 2.56 ng/mL
- Acetylcholinesterase inhibitory (AChEI) activity [6]: has both TINAP and AChEI activities
- TINAP activity [7]: has both TINAP and AChEI activities

SMILES: C[C@]12CCNC1Nc1ccc(OC(=O)Nc3ccccc3)cc12 (stereo partly shown) [N1, N8, N1,N8-norposiphen]
- Cmax [3]: 3.66 ng/mL
- AUC(0-t) [3]: 36.9 ng·h/mL

SMILES: CN1CC[C@]2(C)c3cc(OC(=O)Nc4ccccc4)ccc3NC12 (stereo partly shown) [N8, N8-norposiphen]
- concentration at 0.25 h [1, 8]: 882 ng/mL
- concentration at 0.5 h [1, 8]: 1310 ng/mL
- concentration at 1 h [1, 8]: 1560 ng/mL
- concentration at 1.25 h [1, 8]: 1790 ng/mL
- concentration at 1.5 h [1, 8]: 1930 ng/mL
- concentration at 2 h [1, 8]: 1830 ng/mL
- concentration at 4 h [1, 8]: 478 ng/mL
- concentration at 12 h [1, 8]: 0 ng/mL
- AUC(0-t) [1, 8]: 5330 ng·h/mL
- Cmax [1, 8]: 1930 ng/mL
- Tmax [1, 8]: 1.5 h
- Plasma level relative to N1 ([1]; mouse plasma): 3.8 times
- Cmax [3]: 30.4 ng/mL
- AUC(0-t) [3]: 260 ng·h/mL
- Cmax [4, 9]: 309 ng/mL
- Cmax ([4]; CD-1, mouse, po, 65 mg/kg): 7290 ng/mL
- half-life [5]: > 12 h
- Kp [5]: 0.17
- AUC(0-t) [5]: 54.9 ng·h/mL
- Cmax [5]: 5.08 ng/mL
- Acetylcholinesterase inhibitory (AChEI) activity [6]: no acetylcholinesterase inhibitory (AChEI) activity
- TINAP activity [7]: have TINAP
